Assays:
Format in all cases: cell-based, human
ER/Nf-kB = test: ER/NF-κB luciferase reporter assay in Ad5-wt-ER infected HAECT-1 cells (IL-1β induced); settings: for ER/Nf-kB Efficacy: relative to maximal inhibition observed with E2
Procedure: (§1) After four hours, cells were washed with EBM-BSA and incubated overnight in the same medium. […] After two hours, cells were washed and incubated at 34° C. for 1 hour. […] Control (no ER infection) cells were processed as above without Ad5-wt-hERα virus infection. […] Cells were subsequently washed with 300 μl of Dulbecco's phosphate buffered saline and lysed in 50 μl of Cell Culture Lysis Reagent (Promega). Luciferase was determined on a Wallac Victor^2 Luminometer (Gaithersburg, Md.) using 10 μl of lysate and mixing with 100 lμof Promega Luciferase Assay reagent. […] For IC50 and EC50 calculations, mean IL-6, luciferase or CK values versus log10 of the compound concentration were fitted to a four parameter logistic equation. The IC50/EC50 value, ‘Hill slope’, upper and lower limits of the curve were iteratively estimated.

creatine kinase = test: Creatine kinase assay in Ad5-wt-ER infected HAECT-1 cells; settings: for CK Efficacy: relative to maximal stimulation observed with E2
Procedure: as §1

IL-6 = IL-6 assay (ELISA) in Ad5-wt-ER infected HAECT-1 cells (IL-1β induced); settings: Homo sapiens
Procedure: as §1

In the case of `CCC1c2cccn2-c2cc(F)c(F)cc2N1S(=O)(=O)c1ccc(O)c(C)c1` (centres unmarked) [Example 5, 4-[(4-ethyl-7,8-difluoropyrrolo[1,2-a]quinoxalin-5-(4H)-yl)sulfonyl]-2-methylphenol], the IC50 (ER/Nf-kB) is reported as 82 nM, the “ER/Nf-kB Efficacy” value (ER/Nf-kB) is reported as 99% and the “CK Efficacy” value (creatine kinase) is reported as 37%.

In the case of `CCC1c2cccn2-c2cc(F)c(F)cc2N1S(=O)(=O)c1ccc(O)cc1` (centres unmarked) [Example 7, 4-[(4-ethyl-7,8-difluoropyrrolo[1,2-a]quinoxalin-5-(4H)-yl)sulfonyl]phenol], the IC50 (ER/Nf-kB) is reported as 26 nM, the “ER/Nf-kB Efficacy” value (ER/Nf-kB) is reported as 113% and the “CK Efficacy” value (creatine kinase) is reported as 37%.

With `CC1c2cccn2-c2cc(F)c(F)cc2N1S(=O)(=O)c1ccc(O)cc1` (centres unmarked) [Example 10, 4-[(7,8-difluoro-4-methylpyrrolo[1,2-a]quinoxalin-5-(4H)-yl)sulfonyl]phenol] the IC50 (ER/Nf-kB) was 14 nM, the “ER/Nf-kB Efficacy” value (ER/Nf-kB) was 97% and the “CK Efficacy” value (creatine kinase) was 39%.

With `CC1c2ccc(F)n2-c2cc(F)c(F)cc2N1S(=O)(=O)c1ccc(O)cc1` (centres unmarked) [Example 13, 4-[(1,7,8-trifluoro-4-methylpyrrolo[1,2-a]quinoxalin-5-(4H)-yl)sulfonyl]phenol] the IC50 (ER/Nf-kB) was 20 nM and the “ER/Nf-kB Efficacy” value (ER/Nf-kB) was 104%.

In the case of `CC1(C)c2cccn2-c2cc(F)c(F)cc2N1S(=O)(=O)c1ccc(O)cc1` [Example 15, 4-[(7,8-difluoro-4,4-dimethylpyrrolo[1,2-a]quinoxalin-5-(4H)-yl)sulfonyl]phenol], the IC50 (ER/Nf-kB) is reported as 150 nM and the “ER/Nf-kB Efficacy” value (ER/Nf-kB) is reported as 105%.

With `CCC1c2cccn2-c2ccc(F)cc2N1S(=O)(=O)c1ccc(O)c(C)c1` (centres unmarked) [Example 19, 4-[(4-ethyl-7-fluoropyrrolo[1,2-a]quinoxalin-5-(4H)-yl)sulfonyl]-2-methylphenol] the IC50 (ER/Nf-kB) was 34 nM, the “ER/Nf-kB Efficacy” value (ER/Nf-kB) was 94% and the “CK Efficacy” value (creatine kinase) was 52%.

In the case of `CCC1c2cccn2-c2ccc(F)cc2N1S(=O)(=O)c1ccc(O)cc1` (centres unmarked) [Example 21, 4-[(4-ethyl-7-fluoropyrrolo[1,2-a]quinoxalin-5-(4H)-yl)sulfonyl]phenol], the IC50 (ER/Nf-kB) is reported as 71 nM, the “ER/Nf-kB Efficacy” value (ER/Nf-kB) is reported as 97% and the “CK Efficacy” value (creatine kinase) is reported as 38%.

`CCC1c2ccc(F)n2-c2ccc(F)cc2N1S(=O)(=O)c1ccc(O)c(C)c1` (centres unmarked) [Example 28, 4-[(4-ethyl-1,7-difluoropyrrolo[1,2-a]quinoxalin-5-(4H)-yl)sulfonyl]-2-methylphenol] was tested, and the IC50 (ER/Nf-kB) was 52 nM, the “ER/Nf-kB Efficacy” value (ER/Nf-kB) was 105% and the “CK Efficacy” value (creatine kinase) was 45%.

With `CCC1c2ccc(Br)n2-c2ccc(F)cc2N1S(=O)(=O)c1ccc(O)c(C)c1` (centres unmarked) [Example 29, 4-[(1-bromo-4-ethyl-7-fluoropyrrolo[1,2-a]quinoxalin-5-(4H)-yl)sulfonyl]-2-methylphenol] the IC50 (ER/Nf-kB) was 587 nM, the “ER/Nf-kB Efficacy” value (ER/Nf-kB) was 100% and the “CK Efficacy” value (creatine kinase) was 28%.

In the case of `CCC1c2cccn2-c2ccc(F)cc2N1S(=O)(=O)c1ccc(O)c(Cl)c1` (centres unmarked) [Example 31, 2-chloro-4-[(4-ethyl-7-fluoropyrrolo[1,2-a]quinoxalin-5-(4H)-yl)sulfonyl]phenol], the IC50 (ER/Nf-kB) is reported as 364 nM and the “ER/Nf-kB Efficacy” value (ER/Nf-kB) is reported as 104%.

For `CCC1c2cccn2-c2ccc(F)cc2N1S(=O)(=O)c1cc(C)c(O)c(C)c1` (centres unmarked) [Example 38, 4-[(4-ethyl-7-fluoropyrrolo[1,2-a]quinoxalin-5-(4H)-yl)sulfonyl]-2,6-dimethylphenol], the IC50 (ER/Nf-kB) was 201 nM, the “ER/Nf-kB Efficacy” value (ER/Nf-kB) was 109% and the “CK Efficacy” value (creatine kinase) was 38%.

With `CC1(C)c2cccn2-c2ccc(Br)cc2N1S(=O)(=O)c1ccc(O)cc1` [Example 41, 4-[(7-bromo-4,4-dimethylpyrrolo[1,2-a]quinoxalin-5-(4H)-yl)sulfonyl]phenol] the IC50 (ER/Nf-kB) was 217 nM, the “ER/Nf-kB Efficacy” value (ER/Nf-kB) was 109% and the “CK Efficacy” value (creatine kinase) was 35%.

With `CCC1c2cccn2-c2ccc(Br)cc2N1S(=O)(=O)c1ccc(O)cc1` (centres unmarked) [Example 44, 4-[(7-bromo-4-ethylpyrrolo[1,2-a]quinoxalin-5-(4H)-yl)sulfonyl]phenol] the IC50 (ER/Nf-kB) was 42 nM, the “ER/Nf-kB Efficacy” value (ER/Nf-kB) was 97% and the “CK Efficacy” value (creatine kinase) was 51%.

With `CCC1c2ccc(F)n2-c2ccc(Br)cc2N1S(=O)(=O)c1ccc(O)cc1` (centres unmarked) [Example 45, 4-[(7-bromo-4-ethyl-1-fluoropyrrolo[1,2-a]quinoxalin-5-(4H)-yl)sulfonyl]phenol] the IC50 (ER/Nf-kB) was 12 nM, the “ER/Nf-kB Efficacy” value (ER/Nf-kB) was 95% and the “CK Efficacy” value (creatine kinase) was 53%.

`CCC1c2cccn2-c2ccc(Br)cc2N1S(=O)(=O)c1ccc(O)c(C)c1` (centres unmarked) [Example 46, 4-[(7-bromo-4-ethylpyrrolo[1,2-a]quinoxalin-5-(4H)-yl)sulfonyl]-2-methylphenol] was tested, and the IC50 (ER/Nf-kB) was 62 nM, the “ER/Nf-kB Efficacy” value (ER/Nf-kB) was 108% and the “CK Efficacy” value (creatine kinase) was 43%.

In the case of `CC1c2cccn2-c2ccc(F)cc2N1S(=O)(=O)c1ccc(O)cc1` (centres unmarked) [Example 49, 4-[(7-fluoro-4-methylpyrrolo[1,2-a]quinoxalin-5-(4H)-yl)sulfonyl]phenol], the IC50 (ER/Nf-kB) is reported as 67 nM, the “ER/Nf-kB Efficacy” value (ER/Nf-kB) is reported as 85% and the “CK Efficacy” value (creatine kinase) is reported as 19%.

With `Cc1cc(S(=O)(=O)N2c3cc(F)ccc3-n3cccc3C2C)ccc1O` (centres unmarked) [Example 51, 4-[(7-fluoro-4-methylpyrrolo[1,2-a]quinoxalin-5-(4H)-yl)sulfonyl]-2-methylphenol] the IC50 (ER/Nf-kB) was 155 nM and the “ER/Nf-kB Efficacy” value (ER/Nf-kB) was 66%.

In the case of `CC1c2cccn2-c2ccc(Br)cc2N1S(=O)(=O)c1ccc(O)cc1` (centres unmarked) [Example 52, 4-[(7-bromo-4-methylpyrrolo[1,2-a]quinoxalin-5-(4H)-yl)sulfonyl]phenol], the IC50 (ER/Nf-kB) is reported as 11 nM and the “ER/Nf-kB Efficacy” value (ER/Nf-kB) is reported as 100%.

`CCC1c2cccn2-c2ccc(C(F)(F)F)cc2N1S(=O)(=O)c1ccc(O)cc1` (centres unmarked) [Example 56, 4-{[4-ethyl-7-(trifluoromethyl)pyrrolo[1,2-a]quinoxalin-5-(4H)-yl]sulfonyl}phenol] was tested, and the IC50 (ER/Nf-kB) was 79 nM and the “ER/Nf-kB Efficacy” value (ER/Nf-kB) was 107%.

In the case of `CCC1c2cccn2-c2ccc(C(F)(F)F)cc2N1S(=O)(=O)c1ccc(O)c(C)c1` (centres unmarked) [Example 58, 4-{[4-ethyl-7-(trifluoromethyl)pyrrolo[1,2-a]quinoxalin-5-(4H)-yl]sulfonyl}-2-methylphenol], the IC50 (ER/Nf-kB) is reported as 85 nM, the “ER/Nf-kB Efficacy” value (ER/Nf-kB) is reported as 132% and the “CK Efficacy” value (creatine kinase) is reported as 42%.

In the case of `CCC1c2cccn2-c2ccc(C(F)(F)F)cc2N1S(=O)(=O)c1ccc(O)c(Cl)c1` (centres unmarked) [Example 61, 2-chloro-4-{[4-ethyl-7-(trifluoromethyl)pyrrolo[1,2-a]quinoxalin-5-(4H)-yl]sulfonyl}phenol], the IC50 (ER/Nf-kB) is reported as 10000 nM, the “ER/Nf-kB Efficacy” value (ER/Nf-kB) is reported as 69% and the “CK Efficacy” value (creatine kinase) is reported as 15%.

For `CCC1c2cccn2-c2ccccc2N1S(=O)(=O)c1ccc(O)c(C)c1` (centres unmarked) [Example 64, 4-[(4-ethylpyrrolo[1,2-a]quinoxalin-5-(4H)-yl)sulfonyl]-2-methylphenol], the IC50 (ER/Nf-kB) was 202 nM and the “ER/Nf-kB Efficacy” value (ER/Nf-kB) was 89%.

`CCOC(=O)Oc1ccc(S(=O)(=O)N2c3c(C)cccc3-n3cccc3C2CC)cc1` (centres unmarked) [Example 66, ethyl 4-[(4-ethyl-6-methylpyrrolo[1,2-a]quinoxalin-5-(4H)-yl)sulfonyl]phenyl carbonate] was tested, and the IC50 (ER/Nf-kB) was 320 nM and the “ER/Nf-kB Efficacy” value (ER/Nf-kB) was 98%.

With `CCC1c2cccn2-c2ccc(Cl)cc2N1S(=O)(=O)c1ccc(O)c(C)c1` (centres unmarked) [Example 68A, 4-[(7-chloro-4-ethylpyrrolo[1,2-a]quinoxalin-5-(4H)-yl)sulfonyl]-2-methylphenol] the IC50 (ER/Nf-kB) was 93 nM, the “ER/Nf-kB Efficacy” value (ER/Nf-kB) was 105% and the “CK Efficacy” value (creatine kinase) was 49%.

Molecule `CC[C@H]1c2ccc(C#N)n2-c2ccc(F)cc2N1C(=O)c1ccc(O)cc1` [Example 129, (4S)-4-ethyl-7-fluoro-5-(4-hydroxybenzoyl)-4,5-dihydropyrrolo[1,2-a]quinoxaline-1-carbonitrile] has an EC50 (creatine kinase; Homo sapiens, HAECT1, CK stimulation, N/O = activity not observed at concentrations tested, read-out: CK IC50) of 636 nM, an Emax (creatine kinase; Homo sapiens, HAECT1, relative to maximal stimulation observed with E2, read-out: CK Efficacy) of -7% and an IC50 (IL-6; HAECT1) of 29 nM. It also gave an Emax (IL-6; HAECT1, relative to maximal inhibition observed with E2, read-out: IL-6 Efficacy) of -77%.
